Patent US9060515B2, “Heterocyclic urea compounds” (BIOTA EUROPE LTD, priority 2011, dated 2015)
In brackets after ≈: the same amount, converted by molar mass.

Assays:
S. aureus (ATCC 29213) = experiment: Antibacterial susceptibility testing (MIC, broth microdilution or agar dilution), S. aureus; type: cell-based; settings: Staphylococcus aureus, ATCC29213; read-out: S. aureus (ATCC 29213) minimal inhibitory concentration (MIC)
Method: (§1) Compounds of the invention were tested for antimicrobial activity by susceptibility testing in liquid or on solid media. MICs for compounds against each strain were determined by the broth microdilution or agar dilution method according to the guidelines of the Clinical Laboratories and Standards Institute, formerly the National Committee for Clinical Laboratory Standards (Clinical Laboratories and Standards Institute. Methods for Dilution Antimicrobial Susceptibility Tests for Bacteria That Grow Aerobically; Approved Standard—Seventh Edition. Document M7-A7. CLSI, Wayne, Pa., 2006; Clinical Laboratories and Standards Institute. The Gram positive bacterial strains tested include S. aureus (Staphylococcus aureus (Isolate ID ATCC 29213)), E. faecalis (Enterococcus faecalis (Isolate ID ATCC 29212)) and S. pyogenes (Streptococcus pyogenes (Isolate ID ATCC 51339)). The Gram negative bacterial strains tested include H. influenzae (Haemophilus influenzae (Isolate ID ATCC 49247)).

S. pyogenes (ATCC 51339) = experiment: Antibacterial susceptibility testing (MIC, broth microdilution or agar dilution), S. pyogenes; type: cell-based; settings: Streptococcus pyogenes, ATCC51339; read-out: S. pyogenes (ATCC 51339) minimal inhibitory concentration (MIC)
Method: as §1

| MIC (S. aureus (ATCC 29213)) [mg/L] | MIC (S. pyogenes (ATCC 51339)) [mg/L] | SMILES |
| --- | --- | --- |
| ≤ 1 |  | CCNC(=O)Nc1cc(Nc2cc(F)cc(F)c2)c(C(=O)Nc2ccc(Cc3nnn[nH]3)cc2)cn1 [Compound 209, 4-(3,5-difluoroanilino)-6-(ethylcarbamoylamino)-N-[4-(1H-tetrazol-5-ylmethyl)phenyl]pyridine-3-carboxamide] |
|  | 8 (≈ 19 µM) | CCNC(=O)Nc1cc(Nc2cccc(C(=O)O)c2)c(C(=O)Nc2cccnc2)cn1 [Compound 87, 3-(2-(3-ethylureido)-5-(pyridin-3-ylcarbamoyl)pyridin-4-ylamino)benzoic acid] |
|  | ≤ 1 | CCNC(=O)Nc1cc(Nc2ccc(C(N)=O)cc2)c(C(=O)Nc2cccnc2)cn1 [Compound 125, 4-(4-carbamoylphenylamino)-6-(3-ethylureido)-N-(pyridin-3-yl)nicotinamide] |
| 4 (≈ 8.65 µM) |  | CCNC(=O)Nc1cc(Nc2cccnc2)c(C(=O)Nc2ccc(CCC(=O)OC)cc2)cn1 [Compound 147] |
| 32 (≈ 73.8 µM) |  | CNC(=O)Nc1cc(Nc2ccccc2)c(C(=O)Nc2ccc(CCC(=O)O)cc2)cn1 [Compound 186, 3-{4-[({6-[(methylcarbamoyl)amino]-4-(phenylamino)pyridin-3-yl}carbonyl)amino]phenyl}propanoic acid] |
|  | ≤ 1 | CCNC(=O)Nc1cc(Nc2ccccc2)c(C(=O)Nc2ccnnc2)cn1 [Compound 64, 6-(3-ethylureido)-4-(phenylamino)-N-(pyridazin-4-yl)nicotinamide] |
| 8 (≈ 20.4 µM) |  | CCNC(=O)Nc1cc(Nc2cncc(C)c2)c(C(=O)Nc2cccnc2)cn1 [Compound 157] |
| 8 (≈ 17.7 µM) |  | CCNC(=O)Nc1cc(Nc2ccc(Cl)cc2)c(C(=O)Nc2ccc(N=[N+]=[N-])cc2)cn1 [Compound 132, N-(4-azidophenyl)-4-[(4-chlorophenyl)amino]-6-[(ethylcarbamoyl)amino]pyridine-3-carboxamide] |
| 4 (≈ 9.82 µM) |  | CCNC(=O)Nc1cc(Nc2cncc(OC)c2)c(C(=O)Nc2cccnc2)cn1 [Compound 174] |
| 16 (≈ 35.7 µM) |  | CCNC(=O)Nc1cc(Nc2cccnc2)c(C(=O)Nc2ccc(CCC(=O)O)cc2)cn1 [Compound 153, 3-{4-[({6-[(ethylcarbamoyl)ami-no]-4-(pyridin-3-ylamino)pyridin-3-yl}carbonyl)amino]phenyl}pro-opanoic acid] |
| 16 (≈ 30.5 µM) |  | CCNC(=O)Nc1cc(Nc2ccc(Cl)cc2)c(C(=O)Nc2cnc(NC3(C(=O)O)CCC3)nc2)cn1 [Compound 165, 1-({5-[({4-[(4-chlorophenyl)amino]-6-[(ethylcarbamoyl)amino]pyridin-3-yl}carbonyl)amino]pyrimidin-2-yl}amino) cyclobutanecarboxylic acid] |
|  | 2 (≈ 4.61 µM) | CCNC(=O)Nc1cc(Nc2ccc(C(=O)NC)cc2)c(C(=O)Nc2cccnc2)cn1 [Compound 126, 6-(3-ethylureido)-4-(4-(methylcarbamoyl)phenylamino)-N-(pyridin-3-yl)nicotinamide] |
|  | 16 (≈ 38.1 µM) | CCNC(=O)Nc1cc(Nc2ccccc2)c(C(=O)Nc2cncc(C(=O)O)c2)cn1 [Compound 84, 5-(6-(3-ethylureido)-4-(phenylamino)nicotinamido)nicotinic acid] |
| 4 (≈ 9.82 µM) |  | CCNC(=O)Nc1cc(Nc2ccc(OC)nc2)c(C(=O)Nc2cccnc2)cn1 [Compound 145] |
| 16 (≈ 30.9 µM) |  | CCNC(=O)Nc1cc(Nc2cccnc2)c(C(=O)Nc2ccc(NCC3(C(=O)OC)CCC3)nc2)cn1 [Compound 156, methyl 1-[({5-[({6-[(ethylcarbamoyl)amino]-4-(pyridin-3-ylamino)pyridin-3-yl}carbonyl)amino]pyridin-2-yl}amino)methyl]cyclobutane carboxylate] |
| ≤ 1 |  | CCNC(=O)Nc1cc(Nc2cccc(F)c2)c(C(=O)Nc2cccnc2)cn1 [Compound 143] |
|  | 4 (≈ 8.94 µM) | CCNC(=O)Nc1cc(Nc2ccc(C(=O)N(C)C)cc2)c(C(=O)Nc2cccnc2)cn1 [Compound 124, 4-(4-(dimethylcarbamoyl)phenylamino)-6-(3-ethylureido)-N-(pyridin-3-yl)nicotinamide] |

| MIC (S. aureus (ATCC 29213)) [mg/L] | MIC (S. pyogenes (ATCC 51339)) [mg/L] | SMILES |
| --- | --- | --- |
| ≤ 1 |  | CCNC(=O)Nc1cc(Nc2ccccc2F)c(C(=O)Nc2cccnc2)cn1 [Compound 144] |
| 2 (≈ 4.5 µM) |  | CCNC(=O)Nc1cc(Nc2ccc(C(F)(F)F)cc2)c(C(=O)Nc2cccnc2)cn1 [Compound 142] |
| ≤ 1 |  | CCNC(=O)Nc1cc(Nc2ccc(C)cc2)c(C(=O)Nc2cccnc2)cn1 [Compound 140] |
| ≤ 1 |  | CCNC(=O)Nc1cc(Nc2ccccc2)c(C(=O)Nc2ccc(C#CCO)cc2)cn1 [Compound 135, 6-[(Ethylcarbamoyl)amino]-N-[4-(3-hydroxyprop-1-yn-1-yl)phenyl]-4-(phenylamino)pyridine-3-carboxamide] |
|  | ≤ 1 | CCNC(=O)Nc1cc(Nc2ccc(C(=O)O)cc2)c(C(=O)Nc2cccnc2)cn1 [Compound 16, 4-(2-(3-Ethylureido)-5-(pyridin-3-ylcarbamoyl)pyridin-4-ylamino)benzoic acid] |
| ≤ 1 |  | CCNC(=O)Nc1cc(Nc2cccc(C(F)(F)F)c2)c(C(=O)Nc2cccnc2)cn1 [Compound 141] |
|  | 4 (≈ 10.1 µM) | CCNC(=O)Nc1cc(Nc2ccccc2)c(C(=O)Nc2c(C)noc2C)cn1 [Compound 50, N-(3,5-dimethylisoxazol-4-yl)-6-(3-ethylureido)-4-(phenylamino)nicotinamide] |
| 8 (≈ 16.3 µM) |  | CCNC(=O)Nc1cc(Nc2ccc(Cl)cc2)c(C(=O)Nc2ccc(C#CC(C)(C)O)cc2)cn1 [Compound 185, 4-[(4-chlorophenyl)amino]-6-[(ethylcarbamoyl)amino]-N-[4-(3-hydroxy-3-methylbut-1-yn-1-yl)phenyl]pyridine-3-carboxamide] |
| 16 (≈ 40.9 µM) |  | CCNC(=O)Nc1cc(Nc2ccc(C)nc2)c(C(=O)Nc2cccnc2)cn1 [Compound 167] |
| ≤ 1 |  | CCNC(=O)Nc1cc(Nc2cccnc2)c(C(=O)Nc2ccc(CC(C)(C)C(=O)OC)cc2)cn1 [Compound 170, methyl 3-{4-[({6-[(ethylcarbamoyl)amino]-4-(pyridin-3-ylamino)pyridin-3-yl}carbonyl)amino]phenyl}-2,2-dimethylpropanoate] |
| 8 (≈ 20.4 µM) |  | CCNC(=O)Nc1cc(Nc2ccnc(C)c2)c(C(=O)Nc2cccnc2)cn1 [Compound 162] |
| ≤ 1 |  | CCNC(=O)Nc1cc(Nc2ccc(OC)cc2)c(C(=O)Nc2ccc(CC(C)(C)C(=O)O)cc2)cn1 [Compound 208, 3-{4-[({6-[(ethylcarbamoyl)amino]-4-[(4-methoxyphenyl)amino]pyridin-3-yl}carbonyl)amino]phenyl}-2,2-dimethylpropanoic acid] |
| 8 (≈ 15.8 µM) |  | CCNC(=O)Nc1cc(Nc2ccc(Cl)cc2)c(C(=O)Nc2ccc(-n3cc(CN)nn3)cc2)cn1 [Compound 194, N-{4-[4-(aminomethyl)-1H-1,2,3-triazol-1-yl]phenyl}-4-[(4-chlorophenyl)amino]-6-[(ethylcarbamoyl)amino]pyridine-3-carboxamide] |
|  | 8 (≈ 18.4 µM) | CCNC(=O)Nc1cc(Nc2ccc(CC(=O)O)cc2)c(C(=O)Nc2cccnc2)cn1 [Compound 114, 2-(4-(2-(3-ethylureido)-5-(pyridin-3-ylcarbamoyl)pyridin-4-ylamino)phenyl)acetic acid] |
| ≤ 1 |  | CCNC(=O)Nc1cc(Nc2ccc(F)cc2)c(C(=O)Nc2cccnc2)cn1 [Compound 139] |
| 32 (≈ 69.5 µM) |  | CCNC(=O)Nc1cc(Nc2cccnc2)c(C(=O)Nc2ccc([C@@H]3C[C@H]3C(=O)O)cc2)cn1 [Compound 193] |
